# Results from patent US12606543B2, “Indole derivatives as serotonergic agents useful for the treatment of disorders related thereto” (priority 2023, dated 2026).
# Like-named read-outs stand apart in the source and are kept apart here.
# Columns and labels:
# [1] = target: T1, human 5-HT2A receptor (Homo sapiens, UniProt P28223); assay: Human 5-HT2A β-arrestin reporter assay; type: cell-based; conditions: for Emax (% of serotonin): U2OS cells, relative to maximum response of serotonin
# T1 construct: expressed in transfected cells; host or cells: U2OS
# Method: Compound potency (EC50) and efficacy (Max response) against the human 5-HT2A receptor in stably transfected U2OS cells were determined in a G protein-coupled receptors (GPCR) cell based β-arrestin reporter assay.
# (§1) Cells were seeded in a total volume of 20 μL into white walled, 384-well microplates and incubated at 37° C. overnight before analysis. For agonist determination, cells were incubated with samples to induce response. Intermediate dilution of sample stocks was performed to generate 5× samples in assay buffer. 5 μL of 5× samples were added to cells and incubated at 37° C. for 120 minutes. The final assay vehicle concentration was 1%. The results are expressed as percent efficacy relative to the maximum response of the control ligand (serotonin) in Table 10.
# Compound potency (EC50) and efficacy (Max response) against the human 5-HT2A receptor in stably transfected U2OS cells was determined in a GPCR cell based β-arrestin reporter assay.
# as §1, with “with sample” for “with samples”, “120 mins.” for “120 minutes.”, “Table 48.” for “Table 10.”
# [2] = target: T2, human 5-HT1A receptor (Homo sapiens, UniProt P08908); assay: Human 5-HT1A cAMP assay; type: cell-based; conditions: for Emax (% of serotonin): cAMP assay, CHO-K1 cells, relative to maximum response of serotonin
# T2 construct: expressed in transfected cells; host or cells: CHO-K1
# T2 sequence (P08908 1-422): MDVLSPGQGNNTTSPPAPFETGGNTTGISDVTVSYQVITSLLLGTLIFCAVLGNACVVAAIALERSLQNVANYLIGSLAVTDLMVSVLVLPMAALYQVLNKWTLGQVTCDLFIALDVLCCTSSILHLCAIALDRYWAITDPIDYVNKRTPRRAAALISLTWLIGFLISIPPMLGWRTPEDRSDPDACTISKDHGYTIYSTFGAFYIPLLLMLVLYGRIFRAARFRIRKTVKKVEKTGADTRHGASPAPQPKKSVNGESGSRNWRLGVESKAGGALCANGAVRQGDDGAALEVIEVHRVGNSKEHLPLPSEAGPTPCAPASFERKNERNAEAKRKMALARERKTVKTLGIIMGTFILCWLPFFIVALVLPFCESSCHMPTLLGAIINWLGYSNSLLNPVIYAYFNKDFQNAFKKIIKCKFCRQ
# Method: Compound potency (EC50) and efficacy (Max response) against the human 5-HT1A receptor in stably transfected CHO-K1 cells were determined in a GPCR cell-based CAMP assay.
# (§2) Cells were seeded in a total volume of 20 μL into white walled, 384-well microplates and incubated at 37° C. overnight before analysis. Prior to testing, cell plating media was exchanged with 10 μL of Assay buffer (HBSS+10 mM HEPES). Briefly, intermediate dilution of sample stocks were performed to generate 4× sample in assay buffer. 5 μL of 4× samples+5 μL of 4× forskolin were added to cells and incubated at 37° C. for 30 minutes (mins). The final assay vehicle concentration was 1%.
# as §2, with “sample stocks was performed to” for “sample stocks were performed to”, “generate 4× samples in assay” for “generate 4× sample in assay”, “4× forskolin was added to” for “4× forskolin were added to”, “for 30 mins. The final” for “for 30 minutes (mins). The final”
# [3] = target: human 5-hydroxytryptamine receptor 2A (5-HT2A) (Homo sapiens, UniProt P28223); assay: biochemical; type: binding
# Method: The objective of this study was to evaluate the binding properties of exemplary compounds of Formula (I) on 5-hydroxytryptamine receptor 2A (5-HT2A).
# 1. The assay buffer was prepared following Table 17 below.
# 2. 8 doses of reference and test compounds starting from 10 mM stock solution as required were prepared by 5-fold serial dilutions with 100% (v/v) DMSO.
# 3. UniFilter-96 GF/B plate was pretreated: • i. 50 μl/well of 0.5% (v/v) PEI was added to UniFilter-96 GF/C plates. The plates were sealed and incubated at 4° C. for 3 hours (hrs). • ii. After incubation, the plates were washed 3 times with ice-cold wash buffer (50 mM Tris, pH7.4).
# 4. The assay plate was prepared: • i. Cell membrane was diluted with assay buffer and 330 μl/well was added to 96 round deep well plates to reach a concentration of 20 μg/well. • ii. 8 concentrations of reference or test compounds were prepared and 110 μl/well was added to 96 round deep well plates. • iii. [3H]-ketanserin was diluted with assay buffer to 5 nM (5× final concentration) and 110 μl/well was added to 96 round deep well plates.
# 5. The plate was centrifuged at 1000 rpm for 30 seconds (secs) and then agitated at 600 rpm at room temperature for 5 min.
# 6. The plates were sealed and the plate incubated at 27° C. for 90 min.
# 7. The incubation was stopped by vacuum filtration onto GF/B filter plates followed by 4 times washing with ice-cold wash buffer (50 mM Tris, pH7.4).
# 8. The filter plates were sealed and 40 μl/well of scintillation cocktail was added.
# 10. The plate was read by using a Microbeta^2 microplate counter.
# 1. For reference and test compounds, the results were expressed as % Inhibition, using the normalization equation: N=100−100×(U−C2)/(C1−C2), where U is the unknown value, C1 is the average of high controls, and C2 is the average of low controls.
# 2. The IC50 was determined by fitting percentage of inhibition as a function of compound concentrations with Hill equation using XLfit. […]
# 9. The filter plates were sealed and 40 μl/well of scintillation cocktail was added.
# [4] = Plasma protein binding by equilibrium dialysis, mouse; type: in vitro ADME; conditions: for recovery at 6 h, 1 µM: CD-1, mouse, plasma; for fraction unbound at 6 h, 1 μM: CD-1, read-out: % Bound (converted)
# Method: The final concentration of compound was 1 μM. The final concentration of DMSO was 0.5%. Ketoconazole was used as positive control in the assay.
# The assay was performed in duplicate.
# All calculations were carried out using Microsoft Excel. […] The percentages of bound compound were calculated as follows: […]
# Ketoconazole was used as positive control in the assay.
# [5] = β-arrestin reporter, stably transfected U2OS cells, 120 min, read-out: EC50
# [6] = mouse plasma, equilibrium dialysis, 37° C., 6 hours
# [7] = cAMP assay with forskolin, stably transfected CHO-K1 cells, 30 min, read-out: EC50
# T1 sequence (P28223 whole entry): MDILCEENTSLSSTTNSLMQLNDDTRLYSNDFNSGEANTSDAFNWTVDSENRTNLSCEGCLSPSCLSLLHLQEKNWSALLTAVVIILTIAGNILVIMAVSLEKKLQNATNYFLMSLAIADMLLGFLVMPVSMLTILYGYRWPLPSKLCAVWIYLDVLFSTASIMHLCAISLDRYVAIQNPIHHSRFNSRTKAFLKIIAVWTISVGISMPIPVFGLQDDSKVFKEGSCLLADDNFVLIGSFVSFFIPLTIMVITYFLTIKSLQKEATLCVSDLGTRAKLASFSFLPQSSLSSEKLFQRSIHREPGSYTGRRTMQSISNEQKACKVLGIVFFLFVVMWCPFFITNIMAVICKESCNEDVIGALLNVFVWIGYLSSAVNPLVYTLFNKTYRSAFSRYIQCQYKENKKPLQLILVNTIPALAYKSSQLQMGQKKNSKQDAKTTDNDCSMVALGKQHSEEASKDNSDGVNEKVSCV
# human 5-hydroxytryptamine receptor 2A (5-HT2A), sequence (P28223 whole entry): as above
SMILES,Emax (% of serotonin) ([1]; β-arrestin reporter),"EC50 [1, 5] [nM]",Emax (% of serotonin) [2],"IC50 ([3]; [3H]-ketanserin displacement, cell membrane, 27° C., 90 min, read-out: h5-HT2A, IC50) [nM]",EC50 [1] [nM],"recovery at 6 h, 1 µM ([4]; Mouse plasma, 1 μM, equilibrium dialysis 6 hours) [%]","fraction unbound at 6 h, 1 μM ([4]; Mouse plasma, 1 μM, equilibrium dialysis 6 hours, 37° C.)","% Remaining @ 6 hours ([4]; Mouse plasma, 1 μM, 6 hours, 37° C.) [%]",EC50 [2] [nM],IC50 [3] [nM],"recovery at 6 h, 1 µM [4, 6] [%]","fraction unbound at 6 h, 1 μM [4, 6]","% Remaining @ 6 hours ([4]; mouse plasma, 6 hours) [%]","EC50 [2, 7] [nM]"
CN(C)CCc1c[nH]c2ccccc12 [DMT],38.86 % of serotonin,114,87.1 % of serotonin,954,–,–,–,–,–,–,–,–,–,–
"CSc1ccc2[nH]cc(C[C@H]3CCCN3C)c2c1 [(R) I-1, (R)-3-((1-Methylpyrrolidin-2-yl)methyl)-5-(methylthio)-1H-indole]",79.27 % of serotonin,–,99.41 % of serotonin,–,25.4,113,0.521,112.85,11.1,154,–,–,–,–
[2H]C([2H])(c1c[nH]c2ccc(OCCCCCN3C(=O)C4CCCCC4C3=O)cc12)[C@H]1CCCN1C([2H])([2H])[2H] (mixture of isomers) [Rac (R) I-248],–,–,–,–,–,–,–,–,–,310,–,–,–,–
"COCCN1CCC[C@@H]1Cc1c[nH]c2ccc(OC)cc12 [(R) I-98, (R)-5-Methoxy-3-((1-(2-methoxyethyl)pyrrolidin-2-yl)methyl)-1H-indole]",81.67 % of serotonin,25.8,96.42 % of serotonin,–,–,–,–,–,–,350,96.4,0.632,103.70,40.3
"[2H]C([2H])(c1c[nH]c2ccc(OCCCCCN3C(=O)c4ccccc4C3=O)cc12)[C@H]1CCCN1C([2H])([2H])[2H] [(R) I-245, (R)-2-(5-((3-((1-(Methyl-d3)pyrrolidin-2-yl)methyl-d2)-1H-indol-5-yl)oxy)pentyl)isoindoline-1,3-dione]",82.18 % of serotonin,28.4,99.14 % of serotonin,–,–,–,–,–,–,225,–,–,–,19.5
"[2H]C([2H])(c1c[nH]c2ccc(OCCCCCN3C(=O)[C@H]4CCCC[C@H]4C3=O)cc12)[C@H]1CCCN1C([2H])([2H])[2H] [Cis (R) I-248, 2-(5-((3-(((R)-1-(Methyl-d3)pyrrolidin-2-yl)methyl-d2)-1H-indol-5-yl)oxy)pentyl)hexahydro-1H-isoindole-1,3(2H)-dione]",84.4 % of serotonin,112,96.76 % of serotonin,–,–,–,–,–,–,–,–,–,–,52.7
"[2H]C([2H])(c1c[nH]c2ccc(OCCCCN3C(=O)c4ccccc4C3=O)cc12)[C@H]1CCCN1C([2H])([2H])[2H] [(R) I-244, (R)-2-(4-((3-((1-(Methyl-d3)pyrrolidin-2-yl)methyl-d2)-1H-indol-5-yl)oxy)butyl)isoindoline-1,3-dione]",79.58 % of serotonin,6.71,99.01 % of serotonin,–,–,–,–,–,–,129,84.8,0.101,94.96,6.3
